One compound from US20240067702A1, “LACTAM-MODIFIED P[…]” (DONGBAO PURPLE STAR (HANGZHOU) BIOPHARMACEUTICAL CO., LTD., priority 2020, published 2024) can be followed below.

*1 amine or outer side, *2 acyl side, *3 side chain or, on linkers, in order; H or OH if unused. Where a SMILES comes first, the peptide text is derived from it. Bridges are numbered along the chain shown (N, C = ends). Side-chain parts run from the residue outwards. [ ]: non-standard residue; d: D form. The star is where a group is joined. C20 diacid = O=C(O)CCCCCCCCCCCCCCCCCCC(=O)*; γGlu = O=C(O)[C@H](CCC(=O)[*:2])N[*:1]; AEEA = NCCOCCOCC(=O)O; Aib = CC(C)(N)C(=O)O

A short description of series [1]: Plasma stability (PLS) test, mouse plasma. The series is classed as in vitro ADME. The note with it: 2 μM, 37° C., up to 120 min, read-out: PLS (H/M) T1/2. The method, then:
To study the stability of test compounds in the plasma of normal mice.
1. Before the experiment, the coagulated frozen plasma was thawed in a water bath at 37° C. Plasma was centrifuged at 4000 rpm for 5 min. If there was blood clot, the blood clot was removed and the pH value was adjusted to 7.4±0.1.
2. Preparation of the test compound solution: 100 μM of the solution was prepared by dilution with DMSO.
3. 98 μL of blank control plasma was added to 2 μL of the test compound solution (100 μM), so that the final concentration of the mixed solution of the two reached 2 μM, and the mixed solution was placed in a 37° C. water bath for incubation.
4. At each time point (0, 10, 30, 60, and 120 min), 1(X) μL of H3PO4 solution and 800 μL of stop solution (200 ng/mL of tolbutamide and 200 ng/mL of labetalol in 100% methanol solution) were added to precipitate protein, and mixed thoroughly.
5. The samples were centrifuged at 4000 rpm for 20 min, and 1(X) μL of supernatant was taken from each well for LC-MS/MS analysis.

Series [2] is described as follows: Plasma protein binding (PPB) test, mouse. The note with it: ultracentrifugation, read-out: PPB % unbound (H/M). The series is classed as in vitro ADME. The method, then:
To study the binding of the test compounds to human/mouse plasma albumin.
1. Matrix preparation: On the day of the experiment, the plasma was thawed in cold water and centrifuged at 3220 rpm for 5 min to remove all blood clots. The pH of the obtained plasma was measured and adjusted to 7.4±0.1 using 1% phosphoric acid or 1N sodium hydroxide as needed.
2. Dilution steps of the test compounds: The test compounds were dissolved in dimethyl sulfoxide (DMSO) to prepare stock solutions at concentrations of 10 mM and 2 mM, respectively. A 40 μM working solution was prepared by diluting 2 μL of the stock solution (2 mM) with 98 μL of DMSO. A 400 μM working solution of the control compound was prepared by diluting 10 μL of the stock solution with 240 μL of DMSO. The working solution of the compound (5 μL) was mixed with the blank matrix (995 μL) at a ratio of 1:200 to prepare the loading matrix.
3.1 An equal amount of 30 μL of the loading matrix (n=2) was transferred to the sample collection plate to prepare samples of time 0 (TO) for residue determination. The samples were immediately matched to the corresponding blank buffer in a final volume of 60 μL with a 1:1 volume ratio of plasma to buffer in each well. Then, 60 μL of 4% H3PO4 in H2O and 480 μL of stop solution containing an internal standard were then added to the TO samples of the test compounds. They were then stored at 2-8° C. with other samples pending for further processing.
3.2 The remaining plasma samples were pre-incubated in a carbon dioxide incubator at 37±1° C. for 30 min. The prepared protein-free samples (F samples) and loading matrix samples (230 μL) were transferred to polycarbonate tubes (n=2) and ultracentrifuged at 37° C. and 155000×g (35000 rpm) for 4 hours.
3.3 To prepare T samples (test samples), an additional matrix-containing sample was transferred to a separate 96-well plate (sample incubation plate) and incubated at 37° C. for 4 hours.
3.4 After centrifugation, 30 μL of protein-free sample and 30 μL of T sample were transferred from the second layer of supernatant (below the upper layer) to a new sample collection plate. Each sample was mixed with the corresponding blank buffer or matrix in a final volume of 60 μL with a matrix:buffer volume ratio of 1:1. 60 μL of 4% H3PO4 aqueous solution and 480 μL of stop solution (containing internal standard) were added to all samples. The mixture was centrifuged at 4000 rpm for 20 min, and 100 μL of the supernatant of each sample was taken for LC-MS/MS analysis.

Another series deals with T1, GLP-1R (Homo sapiens, UniProt P43220).
T1 construct: host or cells: HEK293
T1 sequence (P43220 24-463): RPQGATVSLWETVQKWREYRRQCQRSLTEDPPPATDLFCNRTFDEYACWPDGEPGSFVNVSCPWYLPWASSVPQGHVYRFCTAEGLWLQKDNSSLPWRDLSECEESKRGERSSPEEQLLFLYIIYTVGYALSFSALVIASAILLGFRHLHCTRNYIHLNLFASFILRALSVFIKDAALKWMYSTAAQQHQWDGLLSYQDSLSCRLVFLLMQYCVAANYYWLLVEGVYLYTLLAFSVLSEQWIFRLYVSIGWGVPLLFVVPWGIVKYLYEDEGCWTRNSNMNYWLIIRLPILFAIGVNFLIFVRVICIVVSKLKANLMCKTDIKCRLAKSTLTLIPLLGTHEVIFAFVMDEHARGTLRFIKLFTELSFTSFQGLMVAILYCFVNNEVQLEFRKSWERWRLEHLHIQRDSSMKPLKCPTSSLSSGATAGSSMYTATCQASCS
Briefly: GLP-1R agonist activity test in vitro (cAMP assay). The series is classed as cell-based. The note with it: GLP-IR Agonist Activity EC50 (−) 1% HSA, HEK293 host cell; without 1% HSA. Here is the method: (§1) The cell strains were constructed by Shanghai WuXi AppTec.
(§2) The test compound was serially diluted 4-fold with 10 points. The initial concentration was 30 μM, and the dilution was completed with Bravo.
(§3) 1) 100 nL of the compound was transferred to OptiPlate-384 plate using Echo.
(§4) 7) The GLP-1R/GIPR cell concentration was diluted to 2.0*10^5/mL with the experimental buffer.
(§5) 8) […] of the diluted cell suspension was transferred into the OptiPlate-384 plate.
(§6) 9) The diluted cell suspension was incubated at room temperature for 30 minutes.
(§7) 2) 10 μL of cAMP detection reagent was added.
(§8) 3) The OptiPlate-384 plate was covered with TopSeal-A film and incubated at room temperature for 60 minutes.
(§9) TopSeal-A was removed and read in EnVision.

The target of the next series is T2, GIPR (Homo sapiens, UniProt P48546).
T2 construct: host or cells: CHO
T2 sequence (P48546 22-466): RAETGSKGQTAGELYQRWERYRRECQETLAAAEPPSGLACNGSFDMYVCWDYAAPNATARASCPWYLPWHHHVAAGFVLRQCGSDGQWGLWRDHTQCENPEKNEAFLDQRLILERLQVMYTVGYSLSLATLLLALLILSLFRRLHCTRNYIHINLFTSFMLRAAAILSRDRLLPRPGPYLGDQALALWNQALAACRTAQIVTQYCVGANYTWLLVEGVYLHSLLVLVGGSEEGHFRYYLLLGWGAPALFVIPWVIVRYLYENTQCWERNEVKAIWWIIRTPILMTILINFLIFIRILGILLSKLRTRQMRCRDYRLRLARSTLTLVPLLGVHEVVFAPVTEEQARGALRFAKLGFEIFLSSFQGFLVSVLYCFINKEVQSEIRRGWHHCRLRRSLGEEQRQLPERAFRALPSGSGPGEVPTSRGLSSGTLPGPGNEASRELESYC
The series can be described thus: GIPR agonist activity test in vitro (cAMP assay). The series is classed as cell-based. As to conditions: GIPR Agonist Activity EC50 (−) 1% HSA, CHO host cell; without 1% HSA. The method, then: as §1, §2, §3, §4, §5, §6, §7, §8, §9

Series [3] in a line: Pharmacokinetic evaluation in SD rats. The note with it: rat, 0.048 mg/kg, single SC 0.048 mpk. It is filed as in vivo. Here is the method:
To test the pharmacokinetics of compounds in SD rats in vivo
The pharmacokinetic characteristics of the compounds in rodents after subcutaneous injection were tested according to the standard protocol. In the experiment, the candidate compounds were formulated into clear solutions, and a single subcutaneous injection (SC, 0.048 mpk) was given to the rats. The injection vehicle was citrate buffer (20 mM, pH=7). Whole blood was collected and prepared to obtain plasma. Drug concentration was analyzed by LC-MS/MS method, and pharmacokinetic parameters were calculated by Phoenix WinNonlin software.

What is called EC50 is the midpoint of the concentration-response curve. Consider `CC[C@H](C)[C@H](NC(=O)[C@H](CC(C)C)NC(=O)[C@H](Cc1c[nH]c2ccccc12)NC(=O)[C@@H]1CCC(=O)NCCCC[C@H](NC(=O)[C@H](CCC(N)=O)NC(=O)[C@H](C)NC(=O)[C@H](CCCCNC(=O)COCCOCCNC(=O)COCCOCCNC(=O)CC[C@H](NC(=O)CC[C@H](NC(=O)CCCCCCCCCCCCCCCCCCC(=O)O)C(=O)O)C(=O)O)NC(=O)[C@H](CCCCN)NC(=O)[C@H](CC(=O)O)NC(=O)[C@H](CC(C)C)NC(=O)C(C)(C)NC(=O)[C@@H](NC(=O)[C@H](CO)NC(=O)[C@H](Cc2ccc(O)cc2)NC(=O)[C@H](CC(=O)O)NC(=O)[C@H](CO)NC(=O)[C@@H](NC(=O)[C@H](Cc2ccccc2)NC(=O)[C@@H](NC(=O)CNC(=O)[C@H](CCC(=O)O)NC(=O)C(C)(C)NC(=O)[C@@H](N)Cc2ccc(O)cc2)[C@@H](C)O)[C@@H](C)O)[C@@H](C)CC)C(=O)N[C@@H](C)C(=O)N[C@@H](Cc2ccccc2)C(=O)N[C@@H](C(C)C)C(=O)N1)C(=O)N[C@@H](C)C(=O)NCC(=O)NCC(=O)N1CCC[C@H]1C(=O)N[C@@H](CO)C(=O)N[C@@H](CO)C(=O)NCC(=O)N[C@@H](C)C(=O)N1CCC[C@H]1C(=O)N1CCC[C@H]1C(=O)N1CCC[C@H]1C(=O)N[C@@H](CO)C(N)=O` [WX-002] (H-Y[Aib]EGTFTSDYSI[Aib]LDKK([AEEA-AEEA-γGlu-γGlu-C20 diacid])AQKAFVEWLIAGGPSSGAPPPS-NH2; lactam 20-24), for which the half-life is over 4.82 h in series [1] and 17 h in series [3] (in vivo, read-out: Half-life T1/2 (converted)). Further, in series [2], the fraction unbound stood at 0.0021. The EC50 at GLP-1R worked out at 0.052 nM; on GIPR, 0.29 nM. The AUC(0-t) in series [3] (in vivo, read-out: SC Concentration Integral AUC0-72 h) is 1.32 µM·h. Further, the Cmax in series [3] (plasma, read-out: Maximum Plasma Concentration) came to 14 nM.
